Measurements: ChEMBL document CHEMBL3885881, “DrugMatrix”

Organism: Rattus norvegicus
Assay: DrugMatrix - Regimen: Daily Repeat
Type: toxicity, organism-based, Sprague-Dawley
Parameters: regimen Daily Repeat, gender Male, age 6-8 weeks
Conditions: in vivo, po, 27 mg/kg, route oral GAVAGE, dose level High, vehicle 100 % WATER; for ABSOLUTE BASOPHIL / ABSOLUTE EOSINOPHIL / ABSOLUTE LYMPHOCYTE / ABSOLUTE MONOCYTE / ABSOLUTE SEGMENTED NEUTROPHIL / BASOPHIL / EOSINOPHIL / ERYTHROCYTE COUNT / HEMATOCRIT / HEMOGLOBIN / LEUKOCYTE COUNT / LYMPHOCYTE / MEAN CORPUSCULAR HEMOGLOBIN / MEAN CORPUSCULAR HEMOGLOBIN CONCENTRATION / MEAN CORPUSCULAR VOLUME / MONOCYTE / NEUTROPHIL / NUCLEATED RED BLOOD CELLS / PLATELET COUNT: tissue Blood; for ALANINE AMINOTRANSFERASE / ALBUMIN / ALKALINE PHOSPHATASE / ASPARTATE AMINOTRANSFERASE / BLOOD UREA NITROGEN / CARBON DIOXIDE / CHLORIDE / CHOLESTEROL / CREATINE PHOSPHOKINASE / CREATININE / GLUCOSE / LACTATE DEHYDROGENASE / LIPASE / PHOSPHORUS / POTASSIUM / SODIUM / TOTAL BILIRUBIN / TOTAL PROTEIN / URIC ACID: tissue Plasma

SMILES: NNCCc1ccccc1 [PHENELZINE]
- ABSOLUTE BASOPHIL (72 h, time 3 day): 0 CELLS/uL
- ABSOLUTE EOSINOPHIL (72 h, time 3 day): 54.67 CELLS/uL
- ABSOLUTE LYMPHOCYTE (72 h, time 3 day): 7424 CELLS/uL
- ABSOLUTE MONOCYTE (72 h, time 3 day): 106.67 CELLS/uL
- ABSOLUTE SEGMENTED NEUTROPHIL (72 h, time 3 day): 481.33 CELLS/uL
- BASOPHIL (72 h, time 3 day): 0%
- EOSINOPHIL (72 h, time 3 day): 0.67%
- ERYTHROCYTE COUNT (72 h, time 3 day): 5.49 x10E6/uL
- HEMATOCRIT (72 h, time 3 day): 35.1%
- HEMOGLOBIN (72 h, time 3 day): 14.03 G/DL
- LEUKOCYTE COUNT (72 h, time 3 day): 8.07 x10E3/uL
- LYMPHOCYTE (72 h, time 3 day): 92%
- MEAN CORPUSCULAR HEMOGLOBIN (72 h, time 3 day): 25.57 pg
- MEAN CORPUSCULAR HEMOGLOBIN CONCENTRATION (72 h, time 3 day): 39.97 G/DL
- MEAN CORPUSCULAR VOLUME (72 h, time 3 day): 63.93 fL
- MONOCYTE (72 h, time 3 day): 1.33%
- NEUTROPHIL (72 h, time 3 day): 6%
- NUCLEATED RED BLOOD CELLS (72 h, time 3 day): 0 /100WBC
- PLATELET COUNT (72 h, time 3 day): 1341.67 x10E3/uL
- ALANINE AMINOTRANSFERASE (72 h, time 3 day): 25.67 u/L
- ALBUMIN (72 h, time 3 day): 4.5 G/DL
- ALKALINE PHOSPHATASE (72 h, time 3 day): 356.33 u/L
- ASPARTATE AMINOTRANSFERASE (72 h, time 3 day): 75.67 u/L
- BLOOD UREA NITROGEN (72 h, time 3 day): 16.67 mg/dL
- CARBON DIOXIDE (72 h, time 3 day): 31 mmol/L
- CHLORIDE (72 h, time 3 day): 102.33 MEQ/L
- CHOLESTEROL (72 h, time 3 day): 78.33 mg/dL
- CREATINE PHOSPHOKINASE (72 h, time 3 day): 265 u/L
- CREATININE (72 h, time 3 day): 0.16 mg/dL
- GLUCOSE (72 h, time 3 day): 143 mg/dL
- LACTATE DEHYDROGENASE (72 h, time 3 day): 131.33 u/L
- LIPASE (72 h, time 3 day): 9.33 u/L
- PHOSPHORUS (72 h, time 3 day): 11.73 mg/dL
- POTASSIUM (72 h, time 3 day): 6.74 MEQ/L
- SODIUM (72 h, time 3 day): 145.43 MEQ/L
- TOTAL BILIRUBIN (72 h, time 3 day): 0.23 mg/dL
- TOTAL PROTEIN (72 h, time 3 day): 6.07 G/DL
- URIC ACID (72 h, time 3 day): 1.23 mg/dL
- ABSOLUTE BASOPHIL (120 h, time 5 day): 0 CELLS/uL
- ABSOLUTE EOSINOPHIL (120 h, time 5 day): 69.33 CELLS/uL
- ABSOLUTE LYMPHOCYTE (120 h, time 5 day): 8987.33 CELLS/uL
- ABSOLUTE MONOCYTE (120 h, time 5 day): 88.33 CELLS/uL
- ABSOLUTE SEGMENTED NEUTROPHIL (120 h, time 5 day): 388.33 CELLS/uL
- BASOPHIL (120 h, time 5 day): 0%
- EOSINOPHIL (120 h, time 5 day): 0.67%
- ERYTHROCYTE COUNT (120 h, time 5 day): 6.17 x10E6/uL
- HEMATOCRIT (120 h, time 5 day): 39.07%
- HEMOGLOBIN (120 h, time 5 day): 15.3 G/DL
- LEUKOCYTE COUNT (120 h, time 5 day): 9.53 x10E3/uL
- LYMPHOCYTE (120 h, time 5 day): 94.33%
- MEAN CORPUSCULAR HEMOGLOBIN (120 h, time 5 day): 24.8 pg
- MEAN CORPUSCULAR HEMOGLOBIN CONCENTRATION (120 h, time 5 day): 39.17 G/DL
- MEAN CORPUSCULAR VOLUME (120 h, time 5 day): 63.33 fL
- MONOCYTE (120 h, time 5 day): 1%
- NEUTROPHIL (120 h, time 5 day): 4%
- NUCLEATED RED BLOOD CELLS (120 h, time 5 day): 0 /100WBC
- PLATELET COUNT (120 h, time 5 day): 1357.33 x10E3/uL
- ALANINE AMINOTRANSFERASE (120 h, time 5 day): 18.67 u/L
- ALBUMIN (120 h, time 5 day): 4.37 G/DL
- ALKALINE PHOSPHATASE (120 h, time 5 day): 271 u/L
- ASPARTATE AMINOTRANSFERASE (120 h, time 5 day): 103.33 u/L
- BLOOD UREA NITROGEN (120 h, time 5 day): 26 mg/dL
- CARBON DIOXIDE (120 h, time 5 day): 23 mmol/L
- CHLORIDE (120 h, time 5 day): 110 MEQ/L
- CHOLESTEROL (120 h, time 5 day): 68.33 mg/dL
- CREATINE PHOSPHOKINASE (120 h, time 5 day): 320.33 u/L
- CREATININE (120 h, time 5 day): 0.2 mg/dL
- GLUCOSE (120 h, time 5 day): 155 mg/dL
- LACTATE DEHYDROGENASE (120 h, time 5 day): 594.67 u/L
- LIPASE (120 h, time 5 day): 10 u/L
- PHOSPHORUS (120 h, time 5 day): 11.2 mg/dL
- POTASSIUM (120 h, time 5 day): 5.16 MEQ/L
- SODIUM (120 h, time 5 day): 150.7 MEQ/L
- TOTAL BILIRUBIN (120 h, time 5 day): 0.17 mg/dL
- TOTAL PROTEIN (120 h, time 5 day): 6 G/DL
- URIC ACID (120 h, time 5 day): 1.43 mg/dL
